From patent publication US6694171B1, “X-ray imaging of tumors with dextran carrier of platinum compounds” (Yeda Research and Development, priority 1997, dated 2004)

Assay: Interaction between CDDP and ADH or hydrazine by OPDA colour reaction (FIGS. 4A-4B)
Type: physicochemical
Conditions: 6 μg CDDP, OPDA 4 mg/ml
Experimental: The absorbance at 703 nm was determined (FIG. 4A).

leveling-off ratio ligand:CDDP: 20
Structure (SMILES): NNC(=O)CCCCC(=O)NN [ADH, adipic acid dihydrazide]
